Laboratory results taken from patent US12116388B2, “Amylin receptor agonists” (Novo Nordisk A/S, priority 2022, dated 2024).
pEC50: −log10 of the molar value. Starred links: 1 amine or outer side, 2 acyl side, 3 side chain; linkers in the order of their positions; H or OH if unused. Residues, ends and D or L forms follow the SMILES beside them. *: point of attachment. C18 diacid = O=C(O)CCCCCCCCCCCCCCCCC(=O)*; γGlu = O=C(O)[C@H](CCC(=O)[*:2])N[*:1]

How the values were obtained:
[1] = target: T1, human amylin receptor (hAMYR3) (Homo sapiens, UniProt O60896+P30988); assay: Human amylin receptor (hAMYR3) in vitro potency assay, CRE-luciferase reporter in BHK cells; format: cell-based; conditions: BHK hAMYR3/CRE-Luc cells, 3 hours incubation, assay buffer with 1% ovalbumin
T1 construct: host or cells: BHK (Baby Hamster Kidney), Hollex-1 cell line further transfected with RAMP3
T1 sequence (O60896 24-148, one chain of several): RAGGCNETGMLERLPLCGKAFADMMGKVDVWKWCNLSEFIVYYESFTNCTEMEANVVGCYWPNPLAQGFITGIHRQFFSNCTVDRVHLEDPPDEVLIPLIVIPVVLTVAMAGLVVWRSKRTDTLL
How it was run: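 Luminescence from a CRE-driven luciferase reporter reflects cAMP-mediated receptor activation. Peptides were serially diluted (7 concentrations, 7-fold steps, typically starting near 10 nM) in buffer with 1% ovalbumin and applied for 3 h at 37 °C to BHK cells co-expressing calcitonin receptor (a) and RAMP3.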

[2] = target: T2, human calcitonin receptor (hCTR) (Homo sapiens, UniProt P30988); assay: Human calcitonin receptor (hCTR) in vitro potency assay, CRE-luciferase reporter in BHK cells; format: cell-based; conditions: BHK hCTR/CRE-Luc cells, 3 hours incubation, assay buffer with 1% ovalbumin; read-out: hCalcR potency, EC50
T2 construct: host or cells: BHK (Baby Hamster Kidney), Hollex-1 cell line
T2 sequence (P30988 25-474): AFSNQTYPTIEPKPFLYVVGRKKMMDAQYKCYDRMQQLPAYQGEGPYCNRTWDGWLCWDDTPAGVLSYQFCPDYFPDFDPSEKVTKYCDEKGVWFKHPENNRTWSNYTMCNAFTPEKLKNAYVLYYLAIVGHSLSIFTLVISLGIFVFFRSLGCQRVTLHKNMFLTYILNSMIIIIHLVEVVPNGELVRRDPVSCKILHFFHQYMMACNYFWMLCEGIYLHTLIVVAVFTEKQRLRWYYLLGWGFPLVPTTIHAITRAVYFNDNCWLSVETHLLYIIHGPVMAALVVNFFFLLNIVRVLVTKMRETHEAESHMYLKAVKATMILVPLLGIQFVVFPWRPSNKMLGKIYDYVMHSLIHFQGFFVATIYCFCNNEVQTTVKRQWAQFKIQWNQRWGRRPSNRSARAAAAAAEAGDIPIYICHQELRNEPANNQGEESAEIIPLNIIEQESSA
How it was run: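 Luciferase signal from a CRE reporter served as the cAMP read-out after 3 h, 37 °C exposure to compound. Cells were stably transfected BHK expressing hCTR, and the buffer was phenol-red-free DMEM with 10 mM HEPES and 1% ovalbumin. Compounds were tested as 7-point, 7-fold dilutions, often from about 10 nM.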

Structure (SMILES) | pEC50 [1] | pEC50 [2]
CC[C@H](C)[C@H](NC(=O)[C@@H]1CCCN1C(=O)CNC(=O)[C@H](Cc1ccccc1)NC(=O)[C@H](CC(N)=O)NC(=O)[C@H](CC(=O)O)NC(=O)[C@H](CO)NC(=O)[C@H](CO)NC(=O)[C@H](Cc1c[nH]cn1)NC(=O)[C@H](Cc1c[nH]cn1)NC(=O)[C@H](CC(C)C)NC(=O)[C@H](Cc1ccccc1)NC(=O)[C@H](CCC(=O)O)NC(=O)[C@H](C)NC(=O)[C@H](CC(C)C)NC(=O)[C@H](CCCNC(=N)N)NC(=O)[C@H](CCC(N)=O)NC(=O)[C@@H](NC(=O)[C@H](CCC(N)=O)NC(=O)[C@H](CC(C)C)NC(=O)[C@@H](NC(=O)[C@H](CO)NC(=O)[C@H](CC(C)C)NC(=O)[C@H](Cc1c[nH]cn1)NC(=O)[C@H](CO)NC(=O)[C@H](C)NC(=O)CC[C@H](NC(=O)CCCCCCCCCCCCCCCCC(=O)O)C(=O)O)[C@@H](C)O)[C@@H](C)O)C(=O)N[C@@H](CC(C)C)C(=O)N1CCC[C@H]1C(=O)N1CCC[C@H]1C(=O)N[C@H](C(=O)N[C@@H](CC(=O)O)C(=O)N[C@H](C(=O)NCC(=O)N[C@@H](CO)C(=O)N[C@@H](CC(N)=O)C(=O)N[C@H](C(=O)N1CCC[C@H]1C(N)=O)[C@@H](C)O)C(C)C)[C@@H](C)O [Compound 34, N^1-[(4S)-4-carboxy-4-(17-carboxyheptadecanoylamino)butanoyl]-[Ala1,Ser2,His3,Leu4,Ser5,Leu7,Gln8,Glu14,His17,Asp21,Pro25,Pro28,Pro29,Asp31,Pro37]-human amylin] ({C18 diacid-γGlu}-ASHLSTLQTQRLAEFLHHSSDNFGPILPPTDVGSNTP-NH2) | 11.72 | 11.69
CC[C@H](C)[C@H](NC(=O)[C@@H]1CCCN1C(=O)CNC(=O)[C@H](Cc1ccccc1)NC(=O)[C@H](Cc1c[nH]cn1)NC(=O)[C@H](Cc1c[nH]cn1)NC(=O)[C@H](CC(C)C)NC(=O)[C@H](Cc1ccccc1)NC(=O)[C@H](CCC(=O)O)NC(=O)[C@H](C)NC(=O)[C@H](CC(C)C)NC(=O)[C@H](CCCNC(=N)N)NC(=O)[C@H](CCC(N)=O)NC(=O)[C@@H](NC(=O)[C@H](CCC(N)=O)NC(=O)[C@H](CC(C)C)NC(=O)[C@@H](NC(=O)[C@H](CO)NC(=O)[C@H](CC(C)C)NC(=O)[C@H](Cc1c[nH]cn1)NC(=O)[C@H](CO)NC(=O)[C@H](C)NC(=O)CC[C@H](NC(=O)CCCCCCCCCCCCCCCCC(=O)O)C(=O)O)[C@@H](C)O)[C@@H](C)O)C(=O)N[C@@H](CC(C)C)C(=O)N1CCC[C@H]1C(=O)N1CCC[C@H]1C(=O)N[C@H](C(=O)N[C@@H](CC(=O)O)C(=O)N[C@H](C(=O)NCC(=O)N[C@@H](CO)C(=O)N[C@@H](CCC(=O)O)C(=O)N[C@H](C(=O)N1CCC[C@H]1C(N)=O)[C@@H](C)O)C(C)C)[C@@H](C)O [Compound 35, N^1-[(4S)-4-carboxy-4-(17-carboxyheptadecanoylamino)butanoyl]-[Ala1,Ser2,His3,Leu4,Ser5,Leu7,Gln8,Glu14,His17,Pro25,Pro28,Pro29,Asp31,Glu35,Pro37],des-(19-22)-human amylin] ({C18 diacid-γGlu}-ASHLSTLQTQRLAEFLHHFGPILPPTDVGSETP-NH2) | 11.80 | 11.65

Other lines, results leading:

pEC50 [1] | pEC50 [2] | Structure (SMILES)
11.69 | 11.67 | CC[C@H](C)[C@H](NC(=O)[C@@H]1CCCN1C(=O)CNC(=O)[C@H](Cc1ccccc1)NC(=O)[C@H](Cc1c[nH]cn1)NC(=O)[C@H](Cc1c[nH]cn1)NC(=O)[C@H](CC(C)C)NC(=O)[C@H](Cc1ccccc1)NC(=O)[C@H](CCC(=O)O)NC(=O)[C@H](C)NC(=O)[C@H](CC(C)C)NC(=O)[C@H](CCCNC(=N)N)NC(=O)[C@H](CCC(N)=O)NC(=O)[C@@H](NC(=O)[C@H](CCC(N)=O)NC(=O)[C@H](C)NC(=O)[C@@H](NC(=O)[C@H](CO)NC(=O)[C@H](CC(C)C)NC(=O)[C@H](Cc1c[nH]cn1)NC(=O)[C@H](CO)NC(=O)[C@H](C)NC(=O)CC[C@H](NC(=O)CC[C@H](NC(=O)CCCCCCCCCCCCCCCCC(=O)O)C(=O)O)C(=O)O)[C@@H](C)O)[C@@H](C)O)C(=O)N[C@@H](CC(C)C)C(=O)N1CCC[C@H]1C(=O)N1CCC[C@H]1C(=O)N[C@H](C(=O)N[C@@H](CC(=O)O)C(=O)N[C@H](C(=O)NCC(=O)N[C@@H](CO)C(=O)N[C@@H](CCC(=O)O)C(=O)N[C@H](C(=O)N1CCC[C@H]1C(N)=O)[C@@H](C)O)C(C)C)[C@@H](C)O [Compound 31, N^1-[(4S)-4-carboxy-4-[[(4S)-4-carboxy-4-(17-carboxyheptadecanoylamino)butanoyl]amino]butanoyl]-[Ala1,Ser2,His3,Leu4,Ser5,Ala7,Gln8,Glu14,His17,Pro25,Pro28,Pro29,Asp31,Glu35,Pro37],des-(19-22)-human amylin] ({C18 diacid-γGlu-γGlu}-ASHLSTAQTQRLAEFLHHFGPILPPTDVGSETP-NH2)
11.24 | 10.80 | CC[C@H](C)[C@H](NC(=O)[C@@H]1CCCN1C(=O)CNC(=O)[C@H](Cc1ccccc1)NC(=O)[C@H](Cc1c[nH]cn1)NC(=O)[C@H](Cc1c[nH]cn1)NC(=O)[C@H](CC(C)C)NC(=O)[C@H](Cc1ccccc1)NC(=O)[C@H](CCC(=O)O)NC(=O)[C@H](C)NC(=O)[C@H](CC(C)C)NC(=O)[C@H](CCCNC(=N)N)NC(=O)[C@H](CCC(N)=O)NC(=O)[C@@H](NC(=O)[C@H](CCC(N)=O)NC(=O)[C@H](C)NC(=O)[C@@H](NC(=O)[C@H](CO)NC(=O)[C@H](CC(C)C)NC(=O)[C@H](Cc1c[nH]cn1)NC(=O)[C@H](CO)NC(=O)[C@H](C)NC(=O)CC[C@H](NC(=O)CC[C@H](NC(=O)CCCCCCCCCCCCCCCCC(=O)O)C(=O)O)C(=O)O)[C@@H](C)O)[C@@H](C)O)C(=O)N[C@@H](CC(C)C)C(=O)N1CCC[C@H]1C(=O)N1CCC[C@H]1C(=O)N[C@H](C(=O)N[C@@H](CC(=O)O)C(=O)N[C@H](C(=O)NCC(=O)N[C@@H](CO)C(=O)N[C@@H](CCC(=O)O)C(=O)N[C@H](C(=O)N[C@@H](Cc1ccc(O)cc1)C(N)=O)[C@@H](C)O)C(C)C)[C@@H](C)O [Compound 32, N^1-[(4S)-4-carboxy-4-[[(4S)-4-carboxy-4-(17-carboxyheptadecanoylamino)butanoyl]amino]butanoyl]-[Ala1,Ser2,His3,Leu4,Ser5,Ala7,Gln8,Glu14,His17,Pro25,Pro28,Pro29,Asp31,Glu35],des-(19-22)-human amylin] ({C18 diacid-γGlu-γGlu}-ASHLSTAQTQRLAEFLHHFGPILPPTDVGSETY-NH2)
11.77 | 11.76 | CC[C@H](C)[C@H](NC(=O)[C@H](C)NC(=O)CNC(=O)[C@H](Cc1ccccc1)NC(=O)[C@@H]1CCCN1C(=O)[C@H](CC(=O)O)NC(=O)[C@H](CO)NC(=O)[C@H](CO)NC(=O)[C@H](Cc1c[nH]cn1)NC(=O)[C@H](Cc1c[nH]cn1)NC(=O)[C@H](CC(C)C)NC(=O)[C@H](Cc1ccccc1)NC(=O)[C@H](CCC(=O)O)NC(=O)[C@H](C)NC(=O)[C@H](CC(C)C)NC(=O)[C@H](CCCNC(=N)N)NC(=O)[C@H](CCC(N)=O)NC(=O)[C@@H](NC(=O)[C@H](CCC(N)=O)NC(=O)[C@H](CC(C)C)NC(=O)[C@@H](NC(=O)[C@H](CO)NC(=O)[C@H](CC(C)C)NC(=O)[C@H](Cc1c[nH]cn1)NC(=O)[C@H](CO)NC(=O)[C@H](C)NC(=O)CC[C@H](NC(=O)CCCCCCCCCCCCCCCCC(=O)O)C(=O)O)[C@@H](C)O)[C@@H](C)O)C(=O)N1CCC[C@H]1C(=O)N[C@@H](CO)C(=O)N[C@@H](CO)C(=O)N[C@H](C(=O)N[C@@H](CC(=O)O)C(=O)N[C@H](C(=O)NCC(=O)N1CCC[C@H]1C(=O)N[C@@H](CC(=O)O)C(=O)N[C@H](C(=O)N1CCC[C@H]1C(N)=O)[C@@H](C)O)C(C)C)[C@@H](C)O [Compound 33, N^1-[(4S)-4-carboxy-4-(17-carboxyheptadecanoylamino)butanoyl]-[Ala1,Ser2,His3,Leu4,Ser5,Leu7,Gln8,Glu14,His17,Asp21,Pro22,Pro27,Asp31,Pro34,Asp35,Pro37]-human amylin] ({C18 diacid-γGlu}-ASHLSTLQTQRLAEFLHHSSDPFGAIPSSTDVGPDTP-NH2)
